Experiments:
recombinant human PAI-1 [1] = molecular target: T1, recombinant human PAI-1 (Homo sapiens, UniProt P05121); test: Inhibition of complex formation of PAI-1 and tPA (SDS-PAGE); format: biochemical; conditions: 100 μM concentration
Method: To a 2.5 μL solution obtained by diluting a DMSO solution of the test compound at 4-fold concentration of the test concentration with PBS(-), 5 μL of 150 nM recombinant human PAI-1 solution adjusted with a phosphate buffer (pH6.6, 0.05M Sodium Phosphate, 0.1 M NaCl, 1 mM EDTA) was added, and reacted for 5 minutes at 37° C. […] of 600 nM recombinant human one-chain tPA solution adjusted with PBS(-) was added, and further reacted for 5 minutes at 37° C. 10 μL of stop buffer (1.25 mM Tris-HCl pH6.8, 4% SDS, 0.01% BPB, 14% Glycerol) was added, heated for 30 seconds at 100° C., and then the total amount of 20 μL was applied to 10% SDS-PAGE gel electrophoresis. When the test compound was not added as being a control, a band of PAI-1-tPA complex was observed.

[2] = tested on: mouse heart transplantation model; test: Tests in mouse (murine) heart transplantation model; format: in vivo; conditions: p<0.05
rat thrombosis model = test: Tests in rat thrombosis model (carotid shunt, thrombus weight); format: in vivo; conditions: intraperitoneally 30 mg/kg/day for 8 days beforehand, control 94.9±3.3 mg, n=4, p<0.01
Method: Catheters for shunt were inserted into the right carotid artery and the left carotid artery of a rat, blood was circulated for 30 minutes, and weights of thromboses adhered to threads placed inside the catheters were measured.

recombinant human PAI-1 [3] = molecular target: T1, recombinant human PAI-1; test: PAI-1 inhibitory activity, Test Method A (tPA fluorogenic substrate, Tris buffer pH8.0, 37 C); format: biochemical

T1 sequence (P05121 24-402): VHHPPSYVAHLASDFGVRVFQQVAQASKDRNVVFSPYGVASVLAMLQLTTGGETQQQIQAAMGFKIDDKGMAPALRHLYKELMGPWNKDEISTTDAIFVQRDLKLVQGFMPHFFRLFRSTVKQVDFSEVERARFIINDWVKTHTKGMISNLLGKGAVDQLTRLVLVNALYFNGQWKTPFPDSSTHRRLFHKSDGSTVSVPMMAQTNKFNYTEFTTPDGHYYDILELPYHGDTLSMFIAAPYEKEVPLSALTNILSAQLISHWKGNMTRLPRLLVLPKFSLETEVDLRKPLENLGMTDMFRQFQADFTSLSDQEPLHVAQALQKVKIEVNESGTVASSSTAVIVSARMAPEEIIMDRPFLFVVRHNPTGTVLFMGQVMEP

## O=C1SC(=Cc2cc(O)c(O)c(O)c2)C(=O)N1Cc1ccc(Cl)c(Cl)c1 [compound 10, 5-(3,4,5-Trihydroxybenzylidene)-3-(3,4-dichlorobenzyl)thiazolidine-2,4-dione]
Recombinant human PAI-1 [1]
  inhibition of the complex formation of PAI-1 and tPA observed with SDS-PAGE: completely inhibited
[2]; class II mismatch allograft, control 44.5±2.7%, n=5
  ratio of fibrous lesion 60 days after the transplantation: 18.8±2.2%
[2]; class II mismatch allograft, control 64.5±5.8%
  Vascular endothelial hyperplasia (ratio of thickened endothelium to the internal elastic lamina); incidence of vascular intimal thickening: 21.7±4.9%
[2]; major mismatch allograft Balb/c to C57BL/6, intraperitoneally 20 mg/kg/day, control 7.2±0.2 days
  graft survival: 9.0 ± 0.7 days
Rat thrombosis model
  weight of thrombus: 67.2 ± 6.3 mg
Recombinant human PAI-1 [3]; 50% inhibitory concentration of PAI-1 activity, according to the aforementioned method
  IC50: 450 nM
Recombinant human PAI-1 [3]; test compound 25 μM, Test Method A
  Inhibitory Ratio at 25 μM (%): >99%

— patent US20070276011A1, “Plasminogen Activator Inhibitor-1 Inhibitor” (priority 2003, published 2007)
